Measurements published in patent US20250295570A1, “PEPTIDE HAVING ACTIVITY OF IMPROVING STATE OF SKIN, AND USE THEREOF” (CAREGEN CO., LTD., priority 2021, published 2025).

Experiments:
Assay type in all cases: cell-based, mouse
NIH3T3 cells [1] = test: Proliferation of skin cells (SRB staining, survival rate of NIH3T3 cells); conditions: 50 μM or 100 μM peptide, 72 hours, serum-free DMEM, SRB absorbance at 560 nm, FIG. 1
Method: In this example, the aim was to confirm the effect of a peptide according to an example on proliferation of skin cells, by evaluating changes in survival rate of NIH3T3 cells, which are mouse fibroblasts.
Specifically, NIH3T3 cells were seeded in a […] at a density of 5×10^3 cells/well and cultured for 24 hours. The cells were then washed once with serum-free DMEM media, and the culture medium was replaced with serum-free DMEM media. Then, 50 μM or 100 μM of the peptide consisting of the amino acid sequence of SEQ ID NO: 1 was dispensed into the medium, and cultured in a CO2 incubator at 37° C. for 72 hours. The culture was then washed twice with PBS and treated with 4% paraformaldehyde (PFA) solution for 15 minutes to fix the cultured cells. The culture was then washed twice with distilled water, treated with SRB solution for 1 hour to stain the cells, washed with 1% acetic acid solution, and dried. The dried culture was then dissolved in 20 mM Tris buffer solution and the absorbance at 560 nm was measured using a microplate reader (Molecular Devices, USA). In this example, the untreated group was used as the control group, and the group to which insulin-like growth factor was added (IGF) was used as the positive control group.

elastin = test: Expression of extracellular matrix constituent factor elastin (RT-PCR) in NIH3T3 cells; conditions: 50 μM or 100 μM peptide, 24 hours, FIG. 2 and FIG. 3
Method: (§1) In this example, the aim was to confirm the effect of the peptide according to an example on improving endogenous skin aging, including improvement of wrinkles and enhancement of elasticity, etc., by evaluating the expression levels of collagen type 1 (Col1a1), fibronectin, or elastin, which are known components of the dermis.
(§2) Specifically, NIH3T3 cells were seeded in a 6-well plate at a density of 3×10^5 cells/well and cultured for 24 hours. The cells were then washed once with serum-free DMEM media, and the culture medium was replaced with serum-free DMEM media. Thereafter, 50 μM or 100 μM of the peptide consisting of the amino acid sequence of SEQ ID NO: 1 was dispensed into the medium, and cultured in a CO2 incubator at 37° C. for 24 hours. The culture was then washed twice with PBS, and RNA was isolated from the culture using easy blue (iNtRON, Korea). Using an RT kit (Enzynomics, Korea), 1 μg of the isolated RNA was reverse transcribed to synthesize the respective cDNA. Polymerase chain reaction (PCR) was then performed using the cDNAs and primers Col1a1, fibronectin, and elastin. Meanwhile, the untreated group was used as the control group, and the group to which TGF-β1 was added (TGF-β1) was used as the positive control group, the nucleotide sequences of the primers used in this example are shown in Table 2 below.

NIH3T3 cells [2] = test: Inhibition of apoptosis of skin cells induced by ultraviolet rays (SRB survival rate); conditions: 50 μM or 100 μM peptide, 6 J/cm2 ultraviolet rays, 72 hours, FIG. 4
Method: In this example, the aim was to confirm the effect of the peptide according to an example on the inhibition of apoptosis or cell recovery of skin cells induced by ultraviolet rays, by evaluating the change in survival rate of skin cells whose apoptosis was induced by ultraviolet irradiation.
Specifically, NIH3T3 cells were seeded in a […] at a density of 1×10^4 cells/well and cultured for 24 hours. The cells were then washed once with serum-free DMEM media, the culture medium was replaced with serum-free DMEM media, and 50 μM or 100 μM of the peptide consisting of the amino acid sequence of SEQ ID NO: 1 was dispensed to the culture medium. The culture medium dispensed with the peptide was cultured in a CO2 incubator at 37° C. for 1 hour, transferred to an e-tube, mixed with 100 ul of PBS, and dispensed into a well plate. Afterwards, using a UV irradiator (VILBER LOURMAT, France), 6 J/cm2 ultraviolet rays were irradiated to NIH3T3 cells. The PBS in the well plate was then removed, 900 μL of the culture medium in which the peptides were dispensed was added, and the plate was cultured in a CO2 incubator at 37° C. for 72 hours. […] The dried culture was then dissolved in 20 mM Tris buffer solution and the absorbance at 560 nm was measured using a microplate reader (Molecular Devices, USA). […]

fibronectin = test: Expression of extracellular matrix constituent factor fibronectin (RT-PCR) in NIH3T3 cells; conditions: 50 μM or 100 μM peptide, 24 hours, FIG. 2 and FIG. 3
Method: as §1, §2

collagen type 1 (Col1a1) = test: Expression of extracellular matrix constituent factor Col1a1 (RT-PCR) in NIH3T3 cells; conditions: 50 μM or 100 μM peptide, 24 hours, FIG. 2 and FIG. 3
Method: as §1, §2

NIH3T3 cells [3] = test: Antioxidant effect on skin cells induced by ultraviolet rays (reactive oxygen species, DCF-DA, FACS); conditions: 50 μM or 100 μM peptide, 6 J/cm2 ultraviolet rays, 24 hours, FL1 fluorescence by flow cytometry, FIG. 5
Method: In this example, the aim was to confirm the effect of the peptide according to an embodiment on the antioxidant effect of skin cells induced by ultraviolet rays, by evaluating the level of reactive oxygen species in skin cells increased by ultraviolet irradiation.
Specifically, NIH3T3 cells were seeded in a 6-well plate at a density of 5×10^5 cells/well and cultured for 24 hours. The cells were then washed once with serum-free DMEM media, the culture medium was replaced with serum-free DMEM media, and 50 μM or 100 μM of the peptide consisting of the amino acid sequence of SEQ ID NO: 1 was dispensed to the culture medium. The culture medium dispensed with the peptide was cultured in a CO2 incubator at 37° C. for 1 hour, transferred to an e-tube, mixed with 100 ul of PBS, and dispensed into a well plate. Afterwards, using a UV irradiator (VILBER LOURMAT, France), 6 J/cm2 ultraviolet rays were irradiated to NIH3T3 cells. The PBS in the well plate was then removed, 900 μL of the culture medium in which the peptides were dispensed was added, and the plate was cultured in a CO2 incubator at 37° C. for 24 hours. The culture was then treated with DCFG-DA (2′,7′-dichlorofluorescin diacetate), wrapped in foil, and cultured in a CO2 incubator at 37° C. for 30 minutes. […] After washing the centrifuged cells with PBS, FL1 fluorescence values were measured through flow cytometry (FACS, BD, USA). […]

With SHNFREEPEMRR (Peptide 1) [SEQ ID NO: 1] the proliferation of fibroblasts (NIH3T3 cells [1]) was “promoted”, the expression of elastin (elastin) was “increased” and the “cell survival rate of fibroblasts reduced by ultraviolet irradiation” value (NIH3T3 cells [2]) was “restored”. For the same sequence, the expression of fibronectin (fibronectin) was “increased”, the “expression of Col1a1” value (collagen type 1 (Col1a1)) was “increased” and the “level of reactive oxygen species in fibroblasts increased by ultraviolet irradiation” value (NIH3T3 cells [3]) was “reduced”.
